The record followed here is patent publication US12479827B2, “Heteroaromatic carboxamide derivatives as plasma kallikrein inhibitors” (Boehringer Ingelheim International GmbH, priority 2020, dated 2025).

The target of assay [1] is T1, PKK in kaolin activated human platelet poor plasma (Homo sapiens, UniProt P03952).
T1 construct: Platelet poor plasma (PPP) obtained from human wholeblood; from tissue
Kind of assay: Inhibition of PKK in kaolin activated human PPP.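 Note: readout is the rate of fluorogenic substrate cleavage in rfu per min.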 Type of assay: biochemical. The settings on record: 25-750 μg/mL kaolin, global fit, text b200 calls the values IC90. On the procedure:
Platelet poor plasma (PPP) obtained from human wholeblood, anticoagulated with Na-Citrate, is incubated with various concentrations of the test compound together with either 25, 75, 250, or 750 μg/mL kaolin in assay buffer for 20 min at 37° C. such that for each kaolin dose used a concentration response is obtained for the test compound.

Another assay addresses T2, Human PKK (Homo sapiens, UniProt P03952).
T2 construct: purchased Enzyme Research Laboratories
Kind of assay: Inhibition of PKK using an endpoint assay (human PKK). The settings on record: fluorogenic substrate H-Pro-Phe-Arg-AMC, 1 h room temperature, method names human or rat PKK, table does not say which. It is filed as biochemical. A digest of the protocol: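 Endpoint fluorescence (ex 355 nm, em 460 nm) after stopping with 1 μM final PPACK II. Buffer: Tris 100 mM pH 7.8, NaCl 150 mM, BSA 0.1%, Tween20 0.05%, with 1% DMSO present; enzyme is human plasma kallikrein.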

T2 sequence (P03952 20-390 limits assumed): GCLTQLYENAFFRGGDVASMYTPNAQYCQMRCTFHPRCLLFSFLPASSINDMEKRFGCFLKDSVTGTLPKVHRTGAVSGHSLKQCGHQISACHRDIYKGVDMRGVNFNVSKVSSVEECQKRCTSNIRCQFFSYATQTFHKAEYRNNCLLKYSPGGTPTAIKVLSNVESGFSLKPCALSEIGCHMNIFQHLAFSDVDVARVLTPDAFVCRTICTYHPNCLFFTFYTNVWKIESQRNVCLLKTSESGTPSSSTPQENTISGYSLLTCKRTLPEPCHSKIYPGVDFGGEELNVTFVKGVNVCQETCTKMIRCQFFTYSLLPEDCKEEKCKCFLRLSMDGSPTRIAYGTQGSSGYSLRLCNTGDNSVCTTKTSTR
T2 sequence (P03952 391-638 limits assumed): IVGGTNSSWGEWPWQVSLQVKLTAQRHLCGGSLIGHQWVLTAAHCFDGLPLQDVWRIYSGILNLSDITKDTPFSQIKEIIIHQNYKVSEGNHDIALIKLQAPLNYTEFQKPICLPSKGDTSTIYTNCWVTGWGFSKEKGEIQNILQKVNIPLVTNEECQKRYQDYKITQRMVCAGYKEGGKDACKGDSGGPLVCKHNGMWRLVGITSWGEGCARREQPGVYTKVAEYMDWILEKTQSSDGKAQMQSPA
T1 sequence (P03952 391-638 limits assumed): as above
T1 sequence (P03952 20-390 limits assumed): as the sequence (P03952 20-390 limits assumed) above

On to `CCOc1nc(N2CC3C(C2)C3(F)F)ccc1Cn1cnc(C(=O)N[C@@H]2CCc3c2ncn3C)c1` (stereo partly drawn) [Example 102, 1-[(6-{6,6-Difluoro-3-azabicyclo[3.1.0]hexan-3-yl}-2-ethoxypyridin-3-yl)methyl]-N-[(4R)-1-methyl-1H,4H,5H,6H-cyclopenta[d]imidazol-4-yl]-1H-imidazole-4-carboxamide], for which the IC50 (as a rule, the concentration at which inhibition is half-maximal) was 1440 nM in assay [1] and 2.1 nM against Human PKK.

Turning to `CCOCc1nc(N2CC3C(C2)C3(F)F)ccc1Cn1cc(C(=O)N[C@@H]2CCc3c2ncn3C)cn1` (stereo partly drawn) [Example 179, 1-[(6-{6,6-Difluoro-3-azabicyclo[3.1.0]hexan-3-yl}-2-(ethoxymethyl)pyridin-3-yl)methyl]-N-[(4R)-1-methyl-1H,4H,5H,6H-cyclopenta[d]imidazol-4-yl]-1H-pyrazole-4-carboxamide], the results for the IC50 (in assay [1]; against Human PKK) were 389 nM and 4.2 nM, respectively.

Turning to `C[C@@H](O)c1nc(N2CC3CC3C2)ccc1Cn1cc(C(=O)N[C@@H]2CCc3c2ncn3C)cn1` (stereo partly drawn) [Example 82, 1-[(6-{3-Azabicyclo[3.1.0]hexan-3-yl}-2-[(1R)-1-hydroxy-ethyl]pyridin-3-yl)methyl]-N-[(4R)-1-methyl-1H,4H,5H,6H-cyclopenta[d]imidazol-4-yl]-1H-pyrazole-4-carboxamide], the IC50 was 117 nM in assay [1] and 0.8 nM against Human PKK.

Turning to `Cc1cc(N2CC3C(C2)C3(F)F)nc(C)c1Cn1cc(C(=O)N[C@@H]2CCc3c2ncn3C)cn1` (stereo partly drawn) [Example 112, 1-[(6-{6,6-Difluoro-3-azabicyclo[3.1.0]hexan-3-yl}-2,4-dimethylpyridin-3-yl)methyl]-N-[(4R)-1-methyl-1H,4H,5H,6H-cyclopenta[d]imidazol-4-yl]-1H-pyrazole-4-carboxamide], the IC50 was 2780 nM in assay [1] and 12.6 nM against Human PKK.

In the case of `CCc1nc(N2CC3C(C2)C3(F)F)ccc1Cn1cnc(C(=O)N[C@@H]2CCc3c2ncn3C)c1` (stereo partly drawn) [Example 76, 1-[(6-{6,6-Difluoro-3-azabicyclo[3.1.0]hexan-3-yl}-2-ethylpyridin-3-yl)methyl]-N-[(4R)-1-methyl-1H,4H,5H,6H-cyclopenta[d]imidazol-4-yl]-1H-imidazole-4-carboxamide], the half-inhibitory concentration (IC50) was determined as 270 nM in assay [1] and 0.6 nM at Human PKK.

For the compound `CCc1nc(N2CC3CC3C2)ccc1Cc1cc(C(=O)N[C@@H]2CCc3c2ncn3C)on1` (stereo partly drawn) [Example 146, 3-[(6-{3-Azabicyclo[3.1.0]hexan-3-yl}-2-ethylpyridin-3-yl)methyl]-N-[(4R)-1-methyl-1H,4H,5H,6H-cyclopenta[d]imidazol-4-yl]-1,2-oxazole-5-carboxamide], the IC50 in assay [1] amounted to 274 nM; at Human PKK, 1.1 nM.

With `Cc1nc(N2CC3C(C2)C3(F)F)ccc1Cc1ncc(C(=O)N[C@@H]2CCc3c2ncn3C)o1` (stereo partly drawn) [Example 155, 2-[(6-{6,6-Difluoro-3-azabicyclo[3.1.0]hexan-3-yl}-2-methylpyridin-3-yl)methyl]-N-[(4R)-1-methyl-1H,4H,5H,6H-cyclopenta[d]imidazol-4-yl]-1,3-oxazole-5-carboxamide], the results for the IC50 (in assay [1]; at Human PKK) were 4100 nM and 15.4 nM, respectively.

On to `Cc1nc(N2CC3C(C2)C3(F)F)ccc1Cc1cc(C(=O)N[C@@H]2CCc3c2ncn3C)c[nH]1` (stereo partly drawn) [Example 142, 5-[(6-{6,6-Difluoro-3-azabicyclo[3.1.0]hexan-3-yl}-2-methylpyridin-3-yl)methyl]-N-[(4R)-1-methyl-1H,4H,5H,6H-cyclopenta[d]imidazol-4-yl]-1H-pyrrole-3-carboxamide], for which the values for the IC50 (in assay [1]; at Human PKK) were 731 nM and 5.8 nM, respectively.

With `CCc1nc(N2CC3C(C2)C3(F)F)ccc1Cc1cc(C(=O)N[C@@H]2CCc3c2ncn3C)n(C(C)C)n1` (stereo partly drawn) [Example 160, 3-[(6-{6,6-Difluoro-3-azabicyclo[3.1.0]hexan-3-yl}-2-ethylpyridin-3-yl)methyl]-N-[(4R)-1-methyl-1H,4H,5H,6H-cyclopenta[d]imidazol-4-yl]-1-(propan-2-yl)-1H-pyrazole-5-carboxamide], the IC50 in assay [1] was 967 nM; against Human PKK, 2.2 nM.

Turning to `CCc1nc(N2CC3CC3C2)ccc1Cn1cc(C(=O)N[C@@H]2CCc3c2ncn3C)nn1` (stereo partly drawn) [Example 101, 1-[(6-{3-Azabicyclo[3.1.0]hexan-3-yl}-2-ethylpyridin-3-yl)methyl]-N-[(4R)-1-methyl-1H,4H,5H,6H-cyclopenta[d]imidazol-4-yl]-1H-1,2,3-triazole-4-carboxamide], the IC50 in assay [1] is 297 nM; on Human PKK it was 0.6 nM.

Regarding `Cn1cnc2c1CC[C@H]2NC(=O)c1cnn(Cc2ccc(N3CC4C(C3)C4(F)F)nc2C(F)F)c1` (stereo partly drawn) [Example 46, 1-[(6-{6,6-Difluoro-3-azabicyclo[3.1.0]hexan-3-yl}-2-(difluoromethyl)pyridin-3-yl)methyl]-N-[(4R)-1-methyl-1H,4H,5H,6H-cyclopenta-[d]imidazol-4-yl]-1H-pyrazole-4-carboxamide], the IC50 was 162 nM in assay [1] and 1 nM at Human PKK.

As to `Cn1cnc2c1CC[C@H]2NC(=O)c1cn(Cc2ccc(N3CC4CC4C3)nc2Br)nn1` (stereo partly drawn) [Example 34, 1-[(6-{3-Azabicyclo[3.1.0]hexan-3-yl}-2-bromopyridin-3-yl)methyl]-N-[(4R)-1-methyl-1H,4H,5H,6H-cyclopenta-[d]imidazol-4-yl]-1H-1,2,3-triazole-4-carboxamide], the IC50 in assay [1] was 1190 nM; at Human PKK, 0.9 nM.

With `Cc1nc(N2CC3CC3C2)ccc1Cc1ncc(C(=O)N[C@@H]2CCc3c2ncn3C)o1` (stereo partly drawn) [Example 154, 2-[(6-{3-Azabicyclo[3.1.0]hexan-3-yl}-2-methylpyridin-3-yl)methyl]-N-[(4R)-1-methyl-1H,4H,5H,6H-cyclopenta[d]imidazol-4-yl]-1,3-oxazole-5-carboxamide], the IC50 was determined as 4270 nM in assay [1] and 9.9 nM against Human PKK.

With `Cn1cnc2c1CC[C@H]2NC(=O)c1c[nH]c(Cc2ccc(N3CC4C(C3)C4(F)F)nc2)c1` (stereo partly drawn) [Example 139, 5-[(6-{6,6-Difluoro-3-azabicyclo[3.1.0]hexan-3-yl}pyridin-3-yl)methyl]-N-[(4R)-1-methyl-1H,4H,5H,6H-cyclopenta[d]imidazol-4-yl]-1H-pyrrole-3-carboxamide], the results for the IC50 (in assay [1]; on Human PKK) were 774 nM and 9.6 nM, respectively.

As to `Cn1cnc2c1CC[C@H]2NC(=O)c1cnn(Cc2ccc(N3CC4CC4C3)nc2CC#N)c1` (stereo partly drawn) [Example 81, 1-[(6-{3-Azabicyclo[3.1.0]hexan-3-yl}-2-(cyanomethyl)-pyridin-3-yl)methyl]-N-[(4R)-1-methyl-1H,4H,5H,6H-cyclopenta[d]imidazol-4-yl]-1H-pyrazole-4-carboxamide], the IC50 was 117 nM in assay [1] and 1.3 nM against Human PKK.

`Cn1cnc2c1CC[C@H]2NC(=O)c1cnn(Cc2ccc(N3CC4CC4C3)c(C#N)n2)c1` (stereo partly drawn) [Example 35, 1-[(5-{3-Azabicyclo[3.1.0]hexan-3-yl}-6-cyanopyridin-2-yl)methyl]-N-[(4R)-1-methyl-1H,4H,5H,6H-cyclopenta[d]imidazol-4-yl]-1H-pyrazole-4-carboxamide]: the IC50 in assay [1] worked out at 259 nM; against Human PKK it was 2.2 nM.

For the compound `Cn1cnc2c1CC[C@H]2NC(=O)c1ccc(Cc2ccc(N3CC4C(C3)C4(F)F)nc2CO)s1` (stereo partly drawn) [Example 185, 5-[(6-{6,6-Difluoro-3-azabicyclo[3.1.0]hexan-3-yl}-2-(hydroxymethyl)pyridin-3-yl)methyl]-N-[(4R)-1-methyl-1H,4H,5H,6H-cyclopenta-[d]imidazol-4-yl]thiophene-2-carboxamide], the results for the IC50 (in assay [1]; against Human PKK) were 2270 nM and 10.9 nM, respectively.
